Assay results published in patent EP4104902B1, “COMPOUNDS AND M[…] SAME” (priority 2020, dated 2021).

Each compound was assayed on recombinant rabies virus 1088 strain expressing Gaussia Luciferase (GLuc) (1088/GLuc). Conditions: read-out: Anti-rabies activity.
Assay type: cell-based

SMILES | IC50 [µM]
CC(C)CCNC(=O)[C@@]12C[C@@H]3CN(CC4CCCCC4)[C@@H]([C@@H]3CN1)[C@H]2CC(C)C (relative stereo) [IF-659] | 10 to 30
CC(C)CCNC(=O)[C@@]12C[C@@H]3CN(CCO)[C@@H]([C@@H]3CN1)[C@H]2Cc1cccc2ccccc12 (relative stereo) [IF-660] | 10 to 30
CC(C)CCNC(=O)[C@@]12C[C@@H]3CN(Cc4ccccc4)[C@@H]([C@@H]3CN1)[C@H]2Cc1ccccc1 (relative stereo) [IF-665] | < 5
CC(C)CNC(=O)[C@@]12C[C@@H]3CN(Cc4ccccc4)[C@@H]([C@@H]3CN1)[C@H]2CCc1ccccc1 (relative stereo) [IF-670] | < 5
CC(C)CCNC(=O)[C@@]12C[C@@H]3CN(CC(C)C)[C@@H]([C@@H]3CN1)[C@H]2CCc1ccccc1 (relative stereo) [IF-673] | < 5
CC(C)CCNC(=O)[C@@]12C[C@@H]3CN(CC(C)C)[C@@H]([C@@H]3CN1)[C@H]2Cc1cccc2ccccc12 (relative stereo) [IF-674] | 10 to 30
CC(C)CC[C@@H]1[C@@H]2[C@@H]3CN[C@@]1(C(=O)NCc1ccccc1)C[C@@H]3CN2CC(C)C (relative stereo) [IF-675] | < 5
CC(C)CNC(=O)[C@@]12C[C@@H]3CN(CC(C)C)[C@@H]([C@@H]3CN1)[C@H]2CCc1ccccc1 (relative stereo) [IF-679] | < 5
CC(C)CNC(=O)[C@@]12C[C@@H]3CN(CC(C)C)[C@@H]([C@@H]3CN1)[C@H]2Cc1cccc2ccccc12 (relative stereo) [IF-680] | 10 to 30
CC(C)CCNC(=O)[C@@]12C[C@@H]3CN(Cc4ccc(O)cc4)[C@@H]([C@@H]3CN1)[C@H]2Cc1cccc2ccccc12 (relative stereo) [IF-684] | 10 to 30
CC(C)CCNC(=O)[C@@]12C[C@@H]3CN(Cc4ccccc4)[C@@H]([C@@H]3CN1)[C@H]2CC(C)C (relative stereo) [IF-691] | 10 to 30
CCCCCCNC(=O)[C@@]12C[C@@H]3CN(Cc4ccccc4)[C@@H]([C@@H]3CN1)[C@H]2Cc1ccc(O)cc1 (relative stereo) [IF-692] | < 5
CC(C)C[C@@H]1[C@@H]2[C@@H]3CN[C@@]1(C(=O)NCCC(N)=O)C[C@@H]3CN2CCc1ccccc1 (relative stereo) [IF-699] | 10 to 30
CC(C)CCN1C[C@H]2C[C@]3(C(=O)NCc4cccc5ccccc45)NC[C@H]2[C@H]1[C@H]3CC(C)C (relative stereo) [IF-705] | < 5
CC(C)CCN1C[C@H]2C[C@]3(C(=O)NCc4cccc5ccccc45)NC[C@H]2[C@H]1[C@H]3Cc1ccc(O)cc1 (relative stereo) [IF-706] | < 5
CC(C)CCNC(=O)[C@@]12C[C@@H]3CN(CCc4ccccc4)[C@@H]([C@@H]3CN1)[C@H]2Cc1ccc(O)cc1 (relative stereo) [IF-707] | < 5
O=C(NCCc1ccccc1)[C@@]12C[C@@H]3CN(Cc4cccc5ccccc45)[C@@H]([C@@H]3CN1)[C@H]2Cc1ccc(O)cc1 (relative stereo) [IF-708] | < 5
CC(C)CCNC(=O)[C@@]12C[C@@H]3CN(CC4CCCCC4)[C@@H]([C@@H]3CN1)[C@H]2Cc1ccc(O)cc1 (relative stereo) [IF-709] | 10 to 30
O=C(NCCc1ccccc1)[C@@]12C[C@@H]3CN(CC4CCCCC4)[C@@H]([C@@H]3CN1)[C@H]2Cc1ccccc1 (relative stereo) [IF-710] | < 5
CC(C)C[C@@H]1[C@@H]2[C@@H]3CN[C@@]1(C(=O)NCCc1ccccc1)C[C@@H]3CN2CC1CCCCC1 (relative stereo) [IF-711] | 10 to 30
CC(C)C[C@@H]1[C@@H]2[C@@H]3CN[C@@]1(C(=O)NCCc1ccccc1)C[C@@H]3CN2Cc1ccc(F)cc1 (relative stereo) [IF-714] | < 5

SMILES | IC50 [µM]
O=C(NCCc1ccccc1)[C@@]12C[C@@H]3CN(Cc4ccc(F)cc4)[C@@H]([C@@H]3CN1)[C@H]2Cc1ccc(O)cc1 (relative stereo) [IF-715] | < 5
CC(C)CC[C@@H]1[C@@H]2[C@@H]3CN[C@@]1(C(=O)NCCc1ccccc1)C[C@@H]3CN2CC1CCCCC1 (relative stereo) [IF-717] | < 5
O=C(NCCc1ccccc1)[C@@]12C[C@@H]3CN(CC4CCCCC4)[C@@H]([C@@H]3CN1)[C@H]2Cc1cccc2ccccc12 (relative stereo) [IF-718] | < 5
CC(C)C[C@@H]1[C@@H]2[C@@H]3CN[C@@]1(C(=O)NCCc1ccccc1)C[C@@H]3CN2Cc1ccccc1 (relative stereo) [IF-721] | < 5
O=C(NCCc1ccccc1)[C@@]12C[C@@H]3CN(Cc4ccccc4)[C@@H]([C@@H]3CN1)[C@H]2Cc1ccc(O)cc1 (relative stereo) [IF-722] | < 5
CC(C)CC[C@@H]1[C@@H]2[C@@H]3CN[C@@]1(C(=O)NCCc1ccccc1)C[C@@H]3CN2Cc1ccccc1 (relative stereo) [IF-723] | 10 to 30
CC(C)C[C@@H]1[C@@H]2[C@@H]3CN[C@@]1(C(=O)NCCc1ccccc1)C[C@@H]3CN2CC(C)C (relative stereo) [IF-725] | 10 to 30
CC(C)C[C@@H]1[C@@H]2[C@@H]3CN[C@@]1(C(=O)NCc1cccc4ccccc14)C[C@@H]3CN2CC(C)C (relative stereo) [IF-726] | 10 to 30
CC(C)CC[C@@H]1[C@@H]2[C@@H]3CN[C@@]1(C(=O)NCCc1ccccc1)C[C@@H]3CN2CC(C)C (relative stereo) [IF-727] | < 5
CC(C)CCN1C[C@H]2C[C@]3(C(=O)NCc4ccccc4)NC[C@H]2[C@H]1[C@H]3CC(C)C (relative stereo) [IF-733] | < 5
CC(C)CCN1C[C@H]2C[C@]3(C(=O)NCC(C)C)NC[C@H]2[C@H]1[C@H]3Cc1cccc2ccccc12 (relative stereo) [IF-734] | < 5
CC(C)CCN1C[C@H]2C[C@]3(C(=O)NCC(C)C)NC[C@H]2[C@H]1[C@H]3Cc1ccccc1 (relative stereo) [IF-735] | 10 to 30
CC(C)CNC(=O)[C@@]12C[C@@H]3CN(CCc4ccccc4)[C@@H]([C@@H]3CN1)[C@H]2CC(C)C (relative stereo) [IF-738] | 10 to 30
CC(C)CNC(=O)[C@@]12C[C@@H]3CN(Cc4cccc5ccccc45)[C@@H]([C@@H]3CN1)[C@H]2CC(C)C (relative stereo) [IF-739] | < 5
CC(C)CC[C@@H]1[C@@H]2[C@@H]3CN[C@@]1(C(=O)NCc1ccccc1)C[C@@H]3CN2CC1CCCCC1 (relative stereo) [IF-740] | 10 to 30
CC(C)CNC(=O)[C@@]12C[C@@H]3CN(CC4CCCCC4)[C@@H]([C@@H]3CN1)[C@H]2CC(C)C (relative stereo) [IF-742] | 10 to 30
CC(C)CC[C@@H]1[C@@H]2[C@@H]3CN[C@@]1(C(=O)NCc1ccccc1)C[C@@H]3CN2Cc1ccc(F)cc1 (relative stereo) [IF-743] | 10 to 30
CC(C)CCNC(=O)[C@@]12C[C@@H]3CN(CCc4ccccc4)[C@@H]([C@@H]3CN1)[C@H]2Cc1ccccc1 (relative stereo) [IF-744] | < 5
CC(C)CN1C[C@H]2C[C@]3(C(=O)NCc4ccccc4)NC[C@H]2[C@H]1[C@H]3Cc1cccc2ccccc12 (relative stereo) [IF-753] | 10 to 30
O=C(NCc1cccc2ccccc12)[C@@]12C[C@@H]3CN(CCO)[C@@H]([C@@H]3CN1)[C@H]2Cc1ccccc1 (relative stereo) [IF-758] | < 5
